Reference: patent publication US20050208290A1, “Thick radiation sensitive devices” (priority 2003, published 2005)

Assay: preliminary toxicity study
Conditions: no details given

## CCCCCCNC(=O)OCC#CC#CCOC(=O)NCCCCCC [compound 166, 2,4-hexadiyn-1,6-bis(n-hexylurethane)]
  toxicity: nontoxic
